Measured values: US8003632B2, “Cholinesterase inhibitors for treating inflammation” (priority 2004, dated 2011)
Structures can show the parent of a compound that is named as a salt. Where two headings read alike, the source gives them in different places.

Experiments:
HMGB1 = experiment: Serum HMGB1 (western blot) in septic mice after cecal ligation and puncture; format: in vivo
Experimental: (§1) Cecal Ligation and Puncture (CLP) was performed as described in Fink and Heard, J. of Surg. Res. 49:186-196 (1990), Wichman et al., Crit. Care Med. 26:2078-2086 (1998) and Remick et al., Shock 4:89-95 (1995). Briefly, BALB/c mice were anesthetized with 100 mg/kg ketamine (Fort Dodge, Fort Dodge, Iowa) and 10 mg/kg of xylazine (Bohringer Ingelheim, St. Joseph, Mo.) intramuscularly. A midline incision was performed, and the cecum was isolated. A 6-0 prolene suture ligature was placed at a level 5.0 mm from the cecal tip away from the ileocecal valve.
The ligated cecal stump was then punctured once with a 22-gauge needle, and 2mm stool extruded. The cecum was then placed back into its normal intra-abdominal position. The abdomen was then closed with a running suture of 6-0 prolene in two layers, peritoneum and fascia separately to prevent leakage of fluid. […]
Cecal Ligation and Puncture (CLP) was performed as described above in Example 1. […] HMGB1 was measured by western blot using anti-HMG1 polyclonal antisera (U.S. Pat. No. 6,303,321) and standard methods. Band densities were measured using a Bio-Rad Imaging densitometer. […]
Cecal ligation and puncture were performed as described above. […] Mice were monitored for survival twice daily for three weeks. […] TNF was measured by ELISA as discussed above. HMGB1 was measured in sera by Western blot as discussed above.

[1] = system: murine CLP model of sepsis; format: in vivo, mice
[2] = system: murine model of lethal endotoxemia; format: in vivo, mice; settings: for mice survived: 14 days after endotoxin, vehicle none survived
TNF-α [3] = experiment: Serum TNF-α (ELISA) in septic mice after cecal ligation and puncture; format: in vivo, BALB/c mice; settings: for decrease of serum level TNF-α compared to vehicle control: blood 6 h after treatment
Experimental: as §1
The ligated cecal stump was then punctured once with a 22-gauge needle, and 2mm stool extruded. The cecum was then placed back into its normal intra-abdominal position. The abdomen was then closed with a running suture of 6-0 prolene in two layers, peritoneum and fascia separately to prevent leakage of fluid. All animals were resuscitated with a normal saline solution administered sub-cutaneously at 20 ml/kg of body weight. Each mouse received a subcutaneous injection of imipenem (0.5 mg/mouse) (Primaxin, Merck & Co., Inc., West Point, Pa.) 30 minutes after the surgery. Animals were then allowed to recuperate.
Twenty-four hours after surgery, mice were intraperitoneally administered either 0.01 mg/kg or 0.1 mg/kg Galantamine Hydrobromide (CalBioChem, San Diego, Calif.) or vehicle control (saline). Galantamine was prepared in saline to a final concentration of 10 mg/ml. Mice were euthanized 6 hours after treatment with Galantamine or vehicle control (30 hours after surgery) and blood was collected by cardiac puncture for TNF-α measurement. TNF-α was measured by ELISA (mouse ELISA kit from R&D Systems Inc., Minneapolis, Minn.).
Cecal ligation and puncture were performed as described above. Randomly selected mice were treated intraperitoneally with vehicle (saline, 200 ul) or tacrine (2.5 μg/kg or 0.25 μg/kg) twice daily for 3 days, starting 24 hours after surgery. Mice were monitored for survival twice daily for three weeks. […] TNF was measured by ELISA as discussed above. HMGB1 was measured in sera by Western blot as discussed above.

TNF = experiment: Serum TNF (ELISA) in endotoxemic mice; format: in vivo, BALB/c mice
Experimental: Male BALB/c mice were injected intraperitoneally with 6 mg/kg endotoxin (lipopolysaccharide, E. coli 0111:B4, Sigma, St. Louis, Mo.; 10 mg/ml in pyrogen-free saline), which had been sonicated for 30 min. Galantamine (CalBioChem, San Diego, Calif.) at doses of 0.1, 1, 2 or 4 mg/kg or vehicle control were injected intraperitoneally one hour before endotoxin administration in anesthetized animals. One and half hours after endotoxin exposure, blood was harvested for TNF measurement.
Blood was centrifuged at 5,000 rpm (1,500×g) for 15 min and the supernatants were collected for TNF determination. Serum and supernatants were used for TNF protein analysis by ELISA (R&D Systems Inc., Minneapolis, Minn.) according to the manufacturer's instructions.

TNF-α [4] = experiment: Serum TNF-α in endotoxemic rats after intracerebroventricular administration; format: in vivo; settings: ICV 1 hour before endotoxemia, doses tested 1-1000 ng/kg, dose of the result not stated
Experimental: Endotoxemia was induced in rats via intraperitoneal (IP) injection of endotoxin (lipopolysaccharide, LPS; E. coli 0111:B4, Sigma; 10 mg/ml in PBS) (10-30 mg/kg, IP). Rats were anesthetized with ketamine (10%) in xylazine and placed in a stereotatic head frame (Stoelting Co.). The incisor bar was adjusted until the plane defined by the lambda and bregma was parallel to the base plate. The needle of a Hamilton syringe ([…]) was stereotactically guided into lateral ventricle (0.8 mm posterior to bregma, 1.5 mm lateral to midline, 3.5 mm below the dura). Galantamine at 1, 10, 100 and 1000 ng/kg was dissolved in sterile endotoxin-free saline and administered over 2 min. Vehicle control (saline) was also administered over 2 min. The location of intracerebroventricular (i.c.v.) injections was confirmed by histological examination of the brain after the experiment. TNF-α was measured as described above.

[5] = 2.5 μg/kg i.p. 24 h after CLP, blood 6 h later

## COc1ccc2c3c1O[C@H]1C[C@@H](O)C=C[C@@]31CCN(C)C2 [Galantamine]
HMGB1; 0.1 mg/kg i.p. 24 h after CLP, blood 6 h after treatment
  decrease of serum level of HMGB1 compared to vehicle control: about 50%
[1]; 10 μg/kg i.p. twice daily, 3 days, from 24 h after CLP, monitored 3 weeks, vehicle 37%
  survival from lethal sepsis: 58%
[1]; 100 μg/kg i.p. twice daily, 3 days, from 24 h after CLP, monitored 3 weeks, vehicle 37%, p<0.05
  survival from lethal sepsis: 90%
[1]; Day 6, 10 ug/kg i.p. twice a day for 3 days from 24 h after CLP, vehicle 37%
  mice survived: 58%
[1]; Day 6, 100 ug/kg i.p. twice a day for 3 days from 24 h after CLP, vehicle 37%
  mice survived: 90%
[2]; 4 mg/kg i.p. six hours before endotoxin
  mice survived: about 75%
[2]; day 14, 1 mg/kg i.p. 1 h before endotoxin
  increase in survival: about 15%
[2]; day 14, 2 mg/kg i.p. 1 h before endotoxin
  increase in survival: ~25%
[2]; day 14, 4 mg/kg i.p. 1 h before endotoxin
  increase in survival compared with vehicle control: about 90%
TNF-α [3]; 0.01 mg/kg i.p. 24 h after CLP
  decrease of serum level TNF-α compared to vehicle control: approximately 50%
TNF-α [3]; 0.1 mg/kg i.p. 24 h after CLP
  decrease of serum level TNF-α compared to vehicle control: ~80%
TNF; 2 mg/kg i.p. 1 h before endotoxin
  inhibition of serum TNF in endotoxemic mice: nearly two-fold inhibition
TNF; 4 mg/kg i.p. 1 h before endotoxin
  inhibition of serum TNF in endotoxemic mice: nearly three-fold inhibition
TNF; 1, 2 and 4 mg/kg i.p. 1 h before endotoxin, blood 1.5 h after endotoxin
  effect on serum TNF in endotoxemic mice: significantly inhibited serum TNF
TNF-α [4]
  decrease of serum level TNF-α compared to vehicle control: approximately 94%

## CN(C)C(=O)Oc1cccc([N+](C)(C)C)c1 [Neostigmine, Neostigmine methyl sulfate]
[2]; 0.1 mg/kg i.p. 30 minutes before endotoxin
  mice survived: about 50%

## Nc1c2c(nc3ccccc13)CCCC2 [Tacrine]
HMGB1; [5]
  effect on serum HMGB1 in septic mice: significantly reduced
[1]; mouse, in vivo, ip
  effect on survival in mice with polymicrobial sepsis: significantly improved survival
  mice survived: all
  survival from lethal sepsis: 100%
TNF-α [3]; [5]
  effect on serum TNF in septic mice: significantly reduced
